Measurements: patent US20100292306A1, “Compositions And Methods For The Treatment Of Muscular Dystrophy” (priority 2005, published 2010)

Test system: mdx triangularis sterni (TS) muscle
Test: Percent fibers and percent striated fibers in photographed areas of fixed mdx TS muscle
Type: in vivo, mdx mice
Protocol: To evaluate the effect of various chemical agents on animal models of MD, experimental male and female mdx mice may be injected intraperitoneally (ip) with various chemicals at different dosage. In the case of pyrrolidine dithiocarbamate (PDTC) (50-75 mg/kg of PDTC (obtained from Sigma) may be dissolved in a saline solution (HEPES-Ringer; in mM: 147.5 NaCl, 5 KCl, 2 CaCl2, 11 glucose, 5 HEPES, pH 7.35) for injection. […] The mice may be sacrificed after 1-24 months from the beginning of treatment to determine the effect of the treatment with the chemicals.
In one embodiment, the treatment effect may be evaluated by comparing the morphological results between 3 regions of the triangularis sterni (TS); the caudal third of the muscle extending toward the xiphoid process, the middle third, and the cephalad third of the muscle. This procedure is adopted because there are obvious differences between these regions in the extent of pathology and the muscle thickness in the mdx TS (not clearly seen in the nondystrophic TS) even when examining the muscle at low power (e.g., 4×). Results from animals that die during the experimental time frame (both saline injected and PDTC treated) are typically excluded from the study.
Morphological assessment of total fiber density and density of striated fibers may be conducted as described in the following text. Immediately after completing the resting potential measurements, the minimally stretched TS muscle preparations attached to the dissecting hooks may be fixed overnight in 2% glutaraldehyde (0.1 M cacodylate buffer) and subsequently washed several times in 0.1 M cacodylate. Before removing the preparation from the recording chamber, microphotographs of approximately 24 randomly sampled areas may be obtained at 200-300× magnification in caudal, middle, and cephalad regions of the TS. In the initial studies, a smaller number of photographs may be obtained over the middle portion of the TS muscle.
Each preparation may be illuminated using bright-field optics to minimize depth of focus issues in visualizing muscle fiber striations. Since the mdx TS muscle is a flat and thin preparation, all the fibers in each area are roughly within the same focal plane. However, small variations in depth of focus may produce small variations in the appearance of striated fibers. Such effects may be minimized by routinely adjusting the plane of focus to maximize the number of striated fibers in each photographed area. The density of muscle fibers and the density of striated fibers may then be evaluated for each sampled area by drawing a line orthogonal to the principal axis of the TS muscle fibers across the entire viewing area of each photograph. The percentage of the length of this line that covered muscle fibers and the percentage of this line that covered striated muscle fibers (defined as having striations over at least 50% of the observed length) may be used to determine the percentage of muscle fibers and striated muscle fibers, respectively, for each photographed muscle area. Control experiments using these procedures on adult nondystrophic TS muscles (N=37 areas, 2 TS muscles at 19 and 27 months) may yield average values of 99.1±0.5 (SE) percent fibers and 96.7±1.2 percent striated fibers with no regional differences across the caudal, middle, and cephalad thirds of the muscle (FIG. 3).
In freshly isolated preparations of mdx TS muscle, hypercontraction and myofibrillar disorganization are expressed as a decrease in the appearance of striated muscle fibers (See e.g., FIG. 2A) and fiber loss and fibrosis appear as a decrease in the number of fibers in individual areas of the TS (See e.g., FIG. 2B; cf. Carlson et al., 2003 and Cullen and Fulthorpe, 1975). […]

Structure (SMILES): S=C(S)N1CCCC1 [PDTC, pyrrolidine dithiocarbamate]
- density of fibers in the TS (50 mg/kg ip 48-76 days, Series 2 (11.5-18.5 months) and Series 3 (21.5-22 months)): increases
- increase in the percentage of striated muscle fibers (Series 1, vs untreated, P<0.01): 3 fold
- striated fibers in photographed area (Series 1: 50-75 mg/kg ip daily 27-30 days, 8.5-9 months at sacrifice, middle region, FIG. 2C): approximately 82%
- average percent fibers (Series 1: 50-75 mg/kg ip daily 27-30 days, same in untreated): about 80%
- density of striated fibers (Series 1: 50-75 mg/kg ip, 27-30 days, 8.5-9 months at sacrifice): increases
- increase in the percent of fibers (Series 2: 50 mg/kg daily, 11.5-18.5 months at sacrifice, middle third, P<0.01 vs saline): 1.7 fold
- overall percent of fibers across all regions (Series 2, P<0.05 vs saline): significant increase
- increased percent of striated fibers (Series 2, middle region, P<0.01 vs saline): 8.4 fold
- increase in the percent of striated fibers (Series 3 (22 months), caudal, middle and overall total of sampled areas): 22- to 68 fold
- increases in the density of muscle fibers (Series 3: aged mdx mice (22 months), 50 mg/kg daily, across all regions, P<0.01 or P<0.001): 4.1- to 11.1 fold
- overall percent fibers (Series 4: individual mdx mouse, 50 mg/kg on 238 of 258 days, 13.5 months of age, N=25): 82.2±2.6%
- overall percent striated fibers (Series 4: individual mdx mouse, 50 mg/kg on 238 of 258 days, 13.5 months of age, N=25 areas): 40.4±2.6%
- effect of treatment on the percent of striated fibers (Series 4: longer administration beginning in 5 month mdx mice, middle and cephalad regions, P<0.001): significant effect
- density of striated TS fibers (daily PDTC, Series 2 and Series 3): increases
